Measured values as given in US20070060550A1, “Methods of determining compounds useful in the treatment of bipolar disorder and methods of treating such disorders” (priority 2005, published 2007).

Columns and labels:
[1] = tested on: cortical neurons; assay: 3H-CDP-DAG accumulation assay of PIns recycling in carbachol-stimulated neurons; format: cell-based
From the text: PIns recycling that is limited by the supply of inositol can be assessed by loading cells with ^3H-cytidine, stimulating the cells with carbachol in the presence or absence of lithium, precipitating protein with trichloracetic acid, and then determining how much ^3H accumulates as ^3H-CDP-DAG in the lipid membrane compartment, which can be extracted with chloroform. […] Compounds specifically for this purpose may be designed by a number of computer programs suitable for this purpose.
A suitable screen therefore will determine compounds that can reverse the effect of lithium as measured by the accumulation of CDP-DAG in carbachol-stimulated neurons. Another means of screening for drugs that reverse the effect of lithium on PIns recycling is to screen for drugs that alter the supply of intracellular inositol in neurons by labelling them with titriated inositol and analysing the patterns of cytosolic inositol phosphates and membrane phoshoinositides: the novelty of this approach is to use cortical neurons rather than non-neural cells or neural cell lines. […] Additional known tricyclics such as protriptyline that could also be tested. […] The same assays can be used to test for other compounds that stimulate PIns cycling including other inhibitors of prolyl oligopeptidase activity.
The accumulation of tritiated CDP-DAG in the membrane fraction after loading cells with ^3H-cytidine or the incorporation of ^32P orthophosphate into membrane phospholipids can be used to assess changes in synthetic patterns in the presence or absence of compounds needing to be tested.

[2] = biological target: T1, prolyl oligopeptidase (Homo sapiens, UniProt P48147); assay: prolyl oligopeptidase fluorogenic enzyme assay (Z-Gly-Pro-aminomethyl coumarin); format: biochemical; conditions: for effect on prolyl oligopeptidase proteolytic activity: FIG. 9
T1 construct: poly-histidine; made in house; host or cells: E. coli
T1 sequence (P48147 1-710): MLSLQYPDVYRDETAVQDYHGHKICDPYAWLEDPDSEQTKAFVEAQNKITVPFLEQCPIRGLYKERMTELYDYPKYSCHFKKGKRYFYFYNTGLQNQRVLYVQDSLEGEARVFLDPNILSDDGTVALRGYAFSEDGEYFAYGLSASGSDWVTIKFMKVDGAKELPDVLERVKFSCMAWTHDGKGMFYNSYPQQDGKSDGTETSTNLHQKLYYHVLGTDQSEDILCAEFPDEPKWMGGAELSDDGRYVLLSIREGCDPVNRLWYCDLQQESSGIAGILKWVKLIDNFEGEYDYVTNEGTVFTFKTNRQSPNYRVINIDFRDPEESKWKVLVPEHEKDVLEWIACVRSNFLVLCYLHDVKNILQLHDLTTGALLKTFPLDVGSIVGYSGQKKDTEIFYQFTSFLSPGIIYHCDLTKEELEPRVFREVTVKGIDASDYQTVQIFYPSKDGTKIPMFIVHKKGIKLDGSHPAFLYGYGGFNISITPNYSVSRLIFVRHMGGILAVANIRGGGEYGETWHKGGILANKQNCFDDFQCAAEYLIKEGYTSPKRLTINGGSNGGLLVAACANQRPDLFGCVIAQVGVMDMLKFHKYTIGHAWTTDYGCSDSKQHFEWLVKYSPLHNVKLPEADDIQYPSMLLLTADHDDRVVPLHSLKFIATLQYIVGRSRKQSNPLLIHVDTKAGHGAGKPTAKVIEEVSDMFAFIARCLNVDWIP
From the text: For inhibitors of the enzymatic activity on the enzyme prolyl oligopeptidase, the relevant references for several assays can be found in Cheng et al., MCN 2005. Common assays use a peptide-based substrate which, when cleaved from a prorlyl bond, releases a fluorogenic signal that can be quantitated by spectrocopy.
Conveniently, the effect of the candidate compounds that inhibit enzyme activity can be assessed using a labeled substrate that is cleaved or otherwise modified by prolyl oligopeptidase to produce a detachable change such as release of a label. Thus, it is possible to screen candidate inhibitors by measuring the change in the signal from the label caused by the action of prolyl oligopeptidase in the presence and absence of a candidate inhibitor compound. A preferred substrate may be one in which a fluorescent label is employed, such as Z-Gly-Pro-aminomethyl coumarin.
Conveniently, prolyl oligopeptidase enzyme assays can be carried out using a standard fluorogenic assay with the synthetic substrate Z-Gly-Pro-aminomethyl coumarin obtained from Bachem, Switzerland. Recominant prolyl oligopeptidase was produced in E. coli transfected with cDNA encoding the human form of prolyl oligopeptidase cloned into a bacterial expression vector containing either an N-or a C-terminal poly-histidine tag in order to purify the expressed protein. cDNA encoding human […] can be obtained from the MRC's HGMP Resource Center, Hinxton Hall Cambridge, UK (Clone Image No. 3614248).

[3] = tested on: HMIT; conditions: compared with SMIT; cited from earlier work
[4] = tested on: sensory neuron growth cones; assay: growth cone collapse / morphology in cultured neurons; format: cell-based
From the text: I used the growth cones as a model system for assessing changes in intracellular signalling events in response to drugs: The growth cones have some properties in common with presynaptic nerve terminals in the brain. I argued that, if the signalling changes we see in the growth cones of cultured neurons also occur in mature brain synapses in mood-related circuits, then these changes in neuronal signalling in response to the drugs would very likely affect synaptic transmission and thus also affect mood.
Another method of screening for suitable drugs for the prophylactic treatment of bipolar disorder is to look for compounds that have dual effects on the morphology of growth cones. Suitable compounds are those that can inhibit the collapse of growth cones in a way that is reversed by increasing extracellular inositol to 3 mM as well as reverse the effects of 20 μM carbamazepine or 3 mM valproic acid on the collapse of growth cones. Lamotrigine has such properties.

[5] = tested on: sensory neuron growth cones; conditions: Williams et al., 2002; cited from earlier work
[6] = in vivo; cited from earlier work

With CN1c2ccccc2C(NCCCCCCC(=O)O)c2ccc(Cl)cc2S1(=O)=O (stereo not drawn) [tianeptine] the “effective doses in the 3H-CDP-DAG assay” value ([1]; abolition of lithium-induced accumulation, carbachol-stimulated neurons) was 10^−6-10^−5 M, the “effect on lithium-induced accumulation of 3H-CDP-DAG” value ([1]; carbachol-stimulated neurons, in presence of lithium) was “abolished the lithium-induced accumulation” and the “effect alone in the 3H-CDP-DAG assay” value ([1]; compound alone) was “no effect alone”.
With CNCCCN1c2ccccc2CCc2ccccc21 [desipramine] the “effect on prolyl oligopeptidase proteolytic activity” value [2] was “Only valproic acid inhibited the enzyme” and the “concentrations at which the antidepressants act on the PIns cycle” value [1] was “micromolar”.
For O=C(CCc1ccc(O)cc1)c1c(O)cc(O)cc1O [phloretin], the “strength of HMIT inhibition” value [3] is listed as “weak inhibitors of HMIT”.
In the case of CNCCC(Oc1ccc(C(F)(F)F)cc1)c1ccccc1 (stereo not drawn) [fluoxetine], the “effect on prolyl oligopeptidase proteolytic activity” value [2] is reported as “Only valproic acid inhibited the enzyme”, the “concentrations at which the antidepressants act on the PIns cycle” value [1] is reported as “micromolar” and the “reversal of the inhibitory effects of mood stabilizers on the PIns cycle” value ([1]; cycle first perturbed with lithium, valproic acid or carbamazepine) is reported as “can reverse the inhibitory effects of lithium, valproic acid and carbamazepine on the PIns cycle”.
For Nc1nnc(-c2cccc(Cl)c2Cl)c(N)n1 [lamotrigine], the “reversal of the action of carbamazepine or valproic acid on the growth cones” value ([4]; 20 μM carbamazepine or 3 mM valproic acid) was “can reverse the action of either carbamazepine or valproic acid on the growth cones”, the “effect on collapse of growth cones” value ([4]; compound alone) was “inhibits the collapse of growth cones” and the “reversal of the growth cone effect by inositol” value ([4]; increased extracellular inositol (3 mM)) was “reversed by increasing the extracellular concentration of inositol”.
In the case of CCCC(CCC)C(=O)O [valproic acid], the “effect on collapse of sensory neuron growth cones and growth cone area” value [5] is given as “inhibit the collapse of sensory neuron growth cones and increase growth cone area”, the “effect on prolyl oligopeptidase proteolytic activity” value [2] is given as “inhibited the enzyme” and the Ki ([2]; read-out: Ki for direct inhibition of PO) is given as about 1000 µM. The therapeutic blood levels [6] was 0.3 to 0.7 mM.
In the case of NC(=O)N1c2ccccc2C=Cc2ccccc21 [carbamazepine], the “effect on collapse of sensory neuron growth cones and growth cone area” value [5] is listed as “inhibit the collapse of sensory neuron growth cones and increase growth cone area” and the “effect on prolyl oligopeptidase proteolytic activity” value [2] is listed as “Only valproic acid inhibited the enzyme”.
